# Measured values reported in patent US9745335B2 (Blirt S.A., priority 2012, dated 2017).
# Tests used:
# [1] = tested on: Candida albicans ATCC 10231; experiment: antifungal activity in vitro, serial dilution in RPMI 1640; type: cell-based
# Summary of the method: (§1)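 Optical density at 531 nm served as the growth read-out. Values were plotted against compound concentration after serial dilution of each compound in RPMI 1640 medium buffered to pH 7.0, as in the M27-A2 yeast standard.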
# [2] = tested on: Candida glabrata DSM 11226; experiment: as above; type: cell-based
# Summary of the method: as §1
# Candida krusei DSM 6128 = experiment: as above; type: cell-based
# Summary of the method: as §1
# [3] = tested on: Candida lusitaniae DSM 70102; experiment: as above; type: cell-based
# Summary of the method: as §1
# [4] = tested on: Candida tropicalis KKP 334; experiment: as above; type: cell-based
# Summary of the method: as §1
# [5] = tested on: Saccharomyces cerevisiae ATCC 9763; experiment: as above; type: cell-based; settings: RPMI 1640, pH 7.0
# Summary of the method: as §1
# Human erythrocytes = experiment: hemotoxicity determination (hemolytic activity); type: cell-based
# Summary of the method: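 Human erythrocytes (2×10^7/ml in saline) were incubated with serially diluted compound for 30 min at 37 °C and then centrifuged. Released haemoglobin was read at A540 against a 0.1% Triton X-100 full-lysis control. EH50 is the interpolated concentration giving 50% of the control A540.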
# [6] = tested on: Aspergillus niger LOCK E201; experiment: antifungal activity in vitro, broader spectrum; type: cell-based
# Summary of the method: (§2)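 Broth serial dilution in RPMI 1640 buffered to pH 7.0, following the NCCLS M27-A2 yeast reference method. Growth was read as optical density at 531 nm, and A531 was plotted against compound concentration.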
# Candida albicans SC 5314 = experiment: antifungal activity in vitro, broader spectrum; type: cell-based
# Summary of the method: as §2
# Candida arborea KKP 319 = experiment: antifungal activity in vitro, broader spectrum; type: cell-based
# Summary of the method: as §2
# [7] = tested on: Candida dubliniensis CBS 7987; experiment: antifungal activity in vitro, broader spectrum; type: cell-based
# Summary of the method: as §2
# [8] = tested on: Candida lipolytica KKP 322; experiment: antifungal activity in vitro, broader spectrum; type: cell-based
# Summary of the method: as §2
# [9] = tested on: Candida parapsilosis DSM 5784; experiment: antifungal activity in vitro, broader spectrum; type: cell-based
# Summary of the method: as §2
# [10] = tested on: Candida pseudotropicalis KKP 324; experiment: antifungal activity in vitro, broader spectrum; type: cell-based
# Summary of the method: as §2
# [11] = tested on: Candida quilliermondii DSM 11947; experiment: antifungal activity in vitro, broader spectrum; type: cell-based
# Summary of the method: as §2
# [12] = tested on: Candida stellatoidea CBS 1905; experiment: antifungal activity in vitro, broader spectrum; type: cell-based
# Summary of the method: as §2
# [13] = tested on: Trichoderma viride LOCK E159; experiment: antifungal activity in vitro, broader spectrum; type: cell-based
# Summary of the method: as §2
# [14] = tested on: Candida albicans clinical strain B3; experiment: antifungal activity against MDR fungal strains and parents; type: cell-based; settings: C. albicans B3, fluconazole sensitive, parent strain for B4
# Summary of the method: as §1
# [15] = tested on: Candida albicans clinical strain B4 (CaMdr1p); experiment: as above; type: cell-based; settings: C. albicans B4 (CaMdr1p), fluconazole-resistant
# Summary of the method: as §1
# [16] = tested on: Candida albicans clinical strain F2; experiment: as above; type: cell-based; settings: C. albicans F2, fluconazole sensitive, parent strain for F5
# Summary of the method: as §1
# [17] = tested on: Candida albicans clinical strain F5 (CaMdr1p); experiment: as above; type: cell-based; settings: C. albicans F5 (CaMdr1p), fluconazole-resistant
# Summary of the method: as §1
# [18] = tested on: Candida albicans clinical strain Gu4; experiment: as above; type: cell-based; settings: C. albicans Gu4, fluconazole sensitive, parent strain for Gu5
# Summary of the method: as §1
# [19] = tested on: Candida albicans clinical strain Gu5 (CaCdr1p, CaCdr2p); experiment: as above; type: cell-based; settings: C. albicans Gu5 (CaCdr1p, CaCdr2p), fluconazole-resistant
# Summary of the method: as §1
# [20] = tested on: Candida albicans strain 5674 (CaCdr1p, CaCdr2p); experiment: as above; type: cell-based; settings: C. albicans 5674 (CaCdr1p, CaCdr2p)
# Summary of the method: as §1
# [21] = tested on: Candida albicans strain STY31; experiment: as above; type: cell-based; settings: C. albicans STY31, 5674 derivative, deletion of CDR1 and CDR2
# Summary of the method: as §1
# [22] = tested on: Candida albicans strain STY7 (CaCdr1p); experiment: as above; type: cell-based; settings: C. albicans STY7 (CaCdr1p), 5674 derivative, deletion of CDR2
# Summary of the method: as §1
# CCRF-CEM cells = experiment: cytotoxic activity against mammalian cells in tissue culture (MTT); type: cell-based, human
# HepG2 cells = experiment: as above; type: cell-based, human
# LLC-PK1 cells = experiment: as above; type: cell-based, pig
smiles,measurement,setting,value
"C[C@@H]1[C@H](O)[C@@H](C)/C=C/C=C/C=C/C=C/C=C/C=C/C=C/[C@H](O[C@@H]2O[C@H](C)[C@@H](O)[C@H](NC(=O)[C@@H](N)Cc3ccc([N+](=O)[O-])cc3)[C@@H]2O)C[C@@H]2O[C@](O)(C[C@@H](O)C[C@@H](O)[C@H](O)CC[C@@H](O)C[C@@H](O)CC(=O)O[C@H]1C)C[C@H](O)[C@H]2C(=O)O [Compound A33, N-L-p-nitrophenylalanylamphotericin B]",Antifungal activity MIC,[1],2 µg/mL
same,Antifungal activity MIC,[2],4 µg/mL
same,Antifungal activity MIC,Candida krusei DSM 6128,4 µg/mL
same,Antifungal activity MIC,[3],2 µg/mL
same,Antifungal activity MIC,[4],4 µg/mL
same,Antifungal activity IC50,[5]; Saccharomyces cerevisiae ATCC 9763 (first head over MIC and IC50),1.39 µg/mL
same,Antifungal activity MIC,[5]; Saccharomyces cerevisiae ATCC 9763,2 µg/mL
same,Hemotoxi EH50,Human erythrocytes,>100 µg/mL
same,Antifungal activity MIC,[6],1 µg/mL
same,Antifungal activity MIC,Candida albicans SC 5314,1 µg/mL
same,Antifungal activity MIC,Candida arborea KKP 319,2 µg/mL
same,Antifungal activity MIC,[7],1 µg/mL
same,Antifungal activity MIC,[8],1 µg/mL
same,Antifungal activity MIC,[9],1 µg/mL
same,Antifungal activity MIC,[10],1 µg/mL
same,Antifungal activity MIC,[11],1 µg/mL
same,Antifungal activity MIC,[12],1 µg/mL
same,Antifungal activity MIC,[13],4 µg/mL
same,Antifungal activity MIC,[14],0.5 µg/mL
same,Antifungal activity MIC,[15],1 µg/mL
same,Antifungal activity MIC,[16],4 µg/mL
same,Antifungal activity MIC,[17],8 µg/mL
same,Antifungal activity MIC,[18],1 µg/mL
same,Antifungal activity MIC,[19],1 µg/mL
same,Antifungal activity MIC,[20],2 µg/mL
same,Antifungal activity MIC,[21],0.5 µg/mL
same,Antifungal activity MIC,[22],1 µg/mL
same,IC50 (cytotoxic activity),CCRF-CEM cells,>100 µg/mL
same,IC50 (cytotoxic activity),HepG2 cells,>100 µg/mL
same,IC50 (cytotoxic activity),LLC-PK1 cells,>100 µg/mL
